Biological target: T1, PPARα (Homo sapiens, UniProt Q07869)
T1 sequence (Q07869 1-468): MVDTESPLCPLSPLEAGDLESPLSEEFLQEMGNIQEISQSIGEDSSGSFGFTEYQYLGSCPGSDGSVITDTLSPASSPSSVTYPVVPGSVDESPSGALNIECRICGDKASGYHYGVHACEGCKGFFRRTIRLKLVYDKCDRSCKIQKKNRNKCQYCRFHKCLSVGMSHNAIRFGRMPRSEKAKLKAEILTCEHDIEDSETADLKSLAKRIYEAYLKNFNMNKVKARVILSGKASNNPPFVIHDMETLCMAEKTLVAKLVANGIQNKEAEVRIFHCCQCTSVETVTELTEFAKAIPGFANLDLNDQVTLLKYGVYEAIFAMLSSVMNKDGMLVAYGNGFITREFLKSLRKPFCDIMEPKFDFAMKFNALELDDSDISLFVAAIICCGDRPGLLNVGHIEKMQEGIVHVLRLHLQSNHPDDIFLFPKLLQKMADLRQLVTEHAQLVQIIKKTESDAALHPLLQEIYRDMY
Experiment: Ligand of PPARα
Assay type: binding

Tetradecylthioacetic acid [TTA] was tested, and the “Ligand of PPARα” value was “potent ligand”.

From US6365628B1 (Thia Medica AS, priority 1998, dated 2002)
